Data on 1 compound can be found in patent US20220016196A1, “Aloe Based Compositions Comprising Polysaccharides and Polyphenols for Regulation of Homeostasis of Immunity” (Unigen, Inc., priority 2020, published 2022).

Assay type in all cases: in vivo, rat
For one experiment, the system named is IL-10. Nature of the experiment: LPS-induced acute lung injury, BAL IL-10 ELISA. As to conditions: rats, LPS 10 mg/kg i.t., 24 hours post, oral, 500 mg/kg. The procedure:
(§1) The study was designed to evaluate the direct impact of an Aloe-based composition (UP360) made in the Example 9 in alleviating LPS-induced acute lung injury administered orally at 500 mg/kg and 250 mg/kg. […] In this study, we treated rats with the test materials orally for 7 days before model induction with LPS. On the 8th day, an hour after oral treatment, LPS was instilled intratracheally (i.t.) at 10 mg/kg dissolved in 0.1 mL/100 g PBS to each rat. The normal control rats received the same volume i.t. PBS only.
(§2) We sacrificed surviving animals 24 hours after intratracheal LPS administration to the rats. At necropsy, collected bronchoalveolar lavage (BAL) by intratracheal injection of 1.5 mL PBS into the right lobe followed by gentle aspiration at least 3 times. Pooled recovered fluid, centrifuged at 1500 rpm for 10 min at 4 ° C., and was used to measure cytokines (e.g. IL-6) and pulmonary protein levels. […]
The presence of IL-10 in undiluted broncho-alveolar lavage (BAL) samples from Example 23 was measured using the Rat IL-10 Quantikine ELISA kit from R&D Systems (product #: R1000) as follows: undiluted BAL was added to a microplate coated with IL-10 antibody. […] After developing for 30 minutes at room temperature, a stop solution was added, and the absorbance was read at 450 nm. The concentration of IL-10 was calculated based on the absorbance readings of an IL-10 standard curve.

The next experiment concerns IL-6. The experiment can be described thus: LPS-induced acute lung injury, BAL IL-6 ELISA. The note with it: rats. The protocol:
as §1, §2
The presence of IL-6 in undiluted rat broncho-alveolar lavage (BAL) from Example 23 was measured using the Rat IL-6 Quantikine ELISA kit from R&D Systems (product #: R6000B) as follows: undiluted BAL was added to a microplate coated with IL-6 antibody. […] After developing for 30 minutes at room temperature, a stop solution was added, and the absorbance was read at 450 nm. The concentration of IL-6 was calculated based on the absorbance readings of an IL-6 standard curve.
In general terms: ELISA stands for enzyme-linked immunosorbent assay.

The next experiment concerns IL-1β. The experiment can be described thus: LPS-induced acute lung injury, serum IL-1β ELISA. As to conditions: rats. The protocol:
as §1, §2
The presence of IL-1β in undiluted rat serum from Example 23 was measured using the Rat IL-1β Quantikine ELISA kit from R&D Systems (product#: RLBOO) as follows: undiluted serum was added to a microplate coated with IL-1β antibody. […] After developing for 30 minutes at room temperature, a stop solution was added, and the absorbance was read at 450 nm. The concentration of IL-1β was calculated based on the absorbance readings of an IL-1β standard curve.

The mark [1] stands for this setting: LPS 10 mg/kg i.t., 24 hours post, oral, 500 mg/kg.

On to `CCCC(=O)[O-].[Na+]` [Sodium Butyrate], for which the “BAL IL-10 level, Mean ± SD” value in the experiment on IL-10 was 154.84 ± 159.63 pg/mL. In the experiment on IL-6 (setting [1]), the “BAL IL-6 level, Mean ± SD” value is reported as 1933.30 ± 1744.23 pg/mL. For the same compound, the “reduction in the level of BAL IL-6 vs vehicle” value with IL-6 (LPS i.t., 500 mg/kg oral) amounted to 37.7%. Also, the “serum IL-1β level, Mean ± SD” value in the experiment with IL-1β (setting [1]) is given as 22.58 ± 9.46 pg/mL. Moreover, the “reduction in serum IL-1β vs vehicle” value with IL-1β (LPS i.t., 500 mg/kg oral) is 65.3%.
